Data published in US20220161456A1, “S[…] PRESERVATIVE COMPOSITION COMPRISING POLYMERIC BETAINE AND CARBAMATE” (Troy Corporation, priority 2019, published 2022).

Columns and labels:
Experiment in all cases: ASTM D4445-10 fungal growth on dip-treated Radiata pine specimens
Format in all cases: cell-based
Settings in all cases: rating 0 (No Growth) to 5 (Complete Growth), one month, 28° C.
[1] = test system: Aureobasidium pullulans (ATCC #9348)
Description: (§1) Radiata pine lumber was machined to specimens with size of 7 mm by 20 mm in cross section and 70 mm long. Solutions prepared as described above were used to treat the machined Radiata pine specimens. The treatment was carried out in a 600 mL beaker. Two unused test pieces were placed on the bottom of the beaker, and the specimens, four in a layer, were placed on the previous layers until all the treatment replicates were included. The specimens were held down with a finger bearing down on a watch glass and submerged in treating solution for 15 seconds. After 15 seconds, the beaker was drained but with specimens still held down, and then was tightly covered with a piece of plastic sheet to prevent drying and was stored overnight. Similarly, untreated control specimens were treated with water.
(§2) One day after treatment, duplicate wood specimens from the same treatment group were tested according to ASTM D4445-10 methodology. The wood specimens were checked for inhibition against sapstain fungi and molds Trichoderma pseudokoningii (ATCC #26801), Aureobasidium pullulans (ATCC #9348), and a mixture of Aspergillus niger (ATCC #6275) and Penicillium funiculosum (ATCC #11797). This method is described below:
(§3) (1) Placed duplicate wood specimens on top of polyester mesh and laid on a stack of four (4) filter paper squares (approximately 2 inches by 2.5 inches) presoaked in 5 mL sterile DI water.
(§4) (2) Prepared fungal mixture from freshly grown slants of each test organism.
(§5) (3) Added 2 mL of DI water and 0.1% Tween 20 to the slant and inverted to mix.
(§6) (4) Poured the concentrate into a total volume of 16 mL.
(§7) (5) Enumerated the stock via hemocytometer and adjusted to […] with additional DI water.
(§8) (6) Inoculated wood specimens via applying 0.25 mL of one of the three separate fungal suspensions to the top of the wood and distributing evenly on the surface with an L-spreader.
(§9) (7) Placed inoculated wood specimens in a humidity chamber for one month at 95% or larger relative humidity and 28° C.
(§10) (8) Rated wood specimens with a rating from “0” (No Growth) to “5” (Complete Growth).
as §1, with “treat” for “treat the”
as §2, with “D4445-10(2019)” for “D4445-10”, “This method is described below:” left out

[2] = test system: Trichoderma pseudokoningii (ATCC #26801)
Description: as §1, §2, §3, §4, §5, §6, §7, §8, §9, §10
as §1, with “treat” for “treat the”
as §2, with “D4445-10(2019)” for “D4445-10”, “This method is described below:” left out

[3] = test system: mixture of Aspergillus niger (ATCC #6275) and Penicillium funiculosum (ATCC #11797)
Description: as §1, §2, §3, §4, §5, §6, §7, §8, §9, §10
as §1, with “treat” for “treat the”
as §2, with “D4445-10(2019)” for “D4445-10”, “This method is described below:” left out

[4] = 2400 ppm treatment solution, Example 2, eight replicates
[5] = 2400 ppm treatment solution, Example 3, ten replicates
[6] = 4800 ppm treatment solution, Example 2, eight replicates

Compound | Average Scoring A.p. [1, 4] | Average Scoring A.p. [1, 5] | Average Scoring A.p. [1, 6] | Average Scoring T.p. [2, 4] | Average Scoring T.p. [2, 5] | Average Scoring T.p. [2, 6] | Average Scoring A.n. + P.f. [3, 4] | Average Scoring A.n. + P.f. [3, 5] | Average Scoring A.n. + P.f. [3, 6]
CCCCNC(=O)OCC#CI [IPBC, 3-iodo-2-propynyl butyl carbamate] | 0.0 | 0 | 0.0 | 2.6 | 1.7 | 2.8 | 0.0 | 2.1 | 0.0
didecyl bis(hydroxyethyl) ammonium borate [DPAB] | 3.3 | 3.6 | 0.8 | 2.5 | 2 | 2.0 | 5.0 | 2 | 4.9
